{"source": "PubChem BioAssay AID1963978", "about": "(Molecular Pharmacology Branch, DTP, NCI, 2024);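 also: spheroids exposed to agents for seven days before the viability read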", "system": "616215-338-R-J1-PDC spheroids with HUVEC/MSC, viability", "assay": "Anticancer human tumor 616215-338-R-J1-PDC patient-derived colon adenocarcinoma cell line growth inhibition [PI3K]", "conditions": "for viability, T/C: stronger effect = lower value", "in_short": "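Stroma-containing spheroids: tumor line, pooled-donor HUVEC, hMSC. Treatments: targeted agents with PI3K inhibitors. Dosing: clinically relevant, half-log spacing, 10 microM ceiling without known Cmax. Read-out: cell viability.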", "key": {"[1]": {"conditions": "curve of first compound, second compound 0.0316 µM"}, "[2]": {"conditions": "curve of first compound, second compound 0.1 µM"}, "[3]": {"conditions": "curve of first compound, second compound 0.316 µM"}, "[4]": {"conditions": "curve of first compound, second compound 1 µM"}, "[5]": {"conditions": "second compound 0.0316 µM, first compound 0.0316 µM"}, "[6]": {"conditions": "second compound 0.0316 µM, first compound 0.1 µM"}, "[7]": {"conditions": "second compound 0.0316 µM, first compound 0.316 µM"}, "[8]": {"conditions": "second compound 0.0316 µM, first compound 1 µM"}, "[9]": {"conditions": "second compound 0.0316 µM, first compound 3.16 µM"}, "[10]": {"conditions": "second compound 0.0316 µM, first compound 10 µM"}, "[11]": {"conditions": "second compound 0.1 µM, first compound 0.0316 µM"}, "[12]": {"conditions": "second compound 0.1 µM, first compound 0.1 µM"}, "[13]": {"conditions": "second compound 0.1 µM, first compound 0.316 µM"}, "[14]": {"conditions": "second compound 0.1 µM, first compound 1 µM"}, "[15]": {"conditions": "second compound 0.1 µM, first compound 3.16 µM"}, "[16]": {"conditions": "second compound 0.1 µM, first compound 10 µM"}, "[17]": {"conditions": "second compound 0.316 µM, first compound 0.0316 µM"}, "[18]": {"conditions": "second compound 0.316 µM, first compound 0.1 µM"}, "[19]": {"conditions": "second compound 0.316 µM, first compound 0.316 µM"}, "[20]": {"conditions": "second compound 0.316 µM, first compound 1 µM"}, "[21]": {"conditions": "second compound 0.316 µM, first compound 3.16 µM"}, "[22]": {"conditions": "second compound 0.316 µM, first compound 10 µM"}, "[23]": {"conditions": "second compound 1 µM, first compound 0.0316 µM"}, "[24]": {"conditions": "second compound 1 µM, first compound 0.1 µM"}, "[25]": {"conditions": "second compound 1 µM, first compound 0.316 µM"}, "[26]": {"conditions": "second compound 1 µM, first compound 1 µM"}, "[27]": {"conditions": "second compound 1 µM, first compound 3.16 µM"}, "[28]": {"conditions": "second compound 1 µM, first compound 10 µM"}}}
{"smiles": "CC(C)NCC(C(=O)N1CCN(c2ncnc3c2C(C)CC3O)CC1)c1ccc(Cl)cc1", "note": "(stereo unspecified) + CC(Nc1ccc2c(c1)OCCn1cc(N3C(=O)OCC3C(F)F)nc1-2)C(N)=O", "values": [{"measurement": "IC50", "setting": "curve of first compound, second compound 0.00316 µM", "result": 6.44, "unit": "µM"}, {"measurement": "IC50", "setting": "curve of first compound, second compound 0.01 µM", "result": 5.88, "unit": "µM"}, {"measurement": "IC50", "setting": "[1]", "result": 5.98, "unit": "µM"}, {"measurement": "IC50", "setting": "[2]", "result": 4.99, "unit": "µM"}, {"measurement": "IC50", "setting": "[3]", "result": 5.13, "unit": "µM"}, {"measurement": "IC50", "setting": "[4]", "result": 3.76, "unit": "µM"}, {"measurement": "viability, T/C", "setting": "second compound 0.00316 µM, first compound 0.0316 µM", "result": 86.5, "unit": "%"}, {"measurement": "viability, T/C", "setting": "second compound 0.00316 µM, first compound 0.1 µM", "result": 95.8, "unit": "%"}, {"measurement": "viability, T/C", "setting": "second compound 0.00316 µM, first compound 0.316 µM", "result": 95.8, "unit": "%"}, {"measurement": "viability, T/C", "setting": "second compound 0.00316 µM, first compound 1 µM", "result": 98.2, "unit": "%"}, {"measurement": "viability, T/C", "setting": "second compound 0.00316 µM, first compound 3.16 µM", "result": 69.9, "unit": "%"}, {"measurement": "viability, T/C", "setting": "second compound 0.00316 µM, first compound 10 µM", "result": 37.7, "unit": "%"}, {"measurement": "viability, T/C", "setting": "second compound 0.01 µM, first compound 0.0316 µM", "result": 88.5, "unit": "%"}, {"measurement": "viability, T/C", "setting": "second compound 0.01 µM, first compound 0.1 µM", "result": 102, "unit": "%"}, {"measurement": "viability, T/C", "setting": "second compound 0.01 µM, first compound 0.316 µM", "result": 90.4, "unit": "%"}, {"measurement": "viability, T/C", "setting": "second compound 0.01 µM, first compound 1 µM", "result": 110, "unit": "%"}, {"measurement": "viability, T/C", "setting": "second compound 0.01 µM, first compound 3.16 µM", "result": 70, "unit": "%"}, {"measurement": "viability, T/C", "setting": "second compound 0.01 µM, first compound 10 µM", "result": 32.9, "unit": "%"}, {"measurement": "viability, T/C", "setting": "[5]", "result": 97.7, "unit": "%"}, {"measurement": "viability, T/C", "setting": "[6]", "result": 104, "unit": "%"}, {"measurement": "viability, T/C", "setting": "[7]", "result": 98, "unit": "%"}, {"measurement": "viability, T/C", "setting": "[8]", "result": 98.1, "unit": "%"}, {"measurement": "viability, T/C", "setting": "[9]", "result": 65.8, "unit": "%"}, {"measurement": "viability, T/C", "setting": "[10]", "result": 37.2, "unit": "%"}, {"measurement": "viability, T/C", "setting": "[11]", "result": 95, "unit": "%"}, {"measurement": "viability, T/C", "setting": "[12]", "result": 94.6, "unit": "%"}, {"measurement": "viability, T/C", "setting": "[13]", "result": 95, "unit": "%"}, {"measurement": "viability, T/C", "setting": "[14]", "result": 93.6, "unit": "%"}, {"measurement": "viability, T/C", "setting": "[15]", "result": 65.7, "unit": "%"}, {"measurement": "viability, T/C", "setting": "[16]", "result": 26.1, "unit": "%"}, {"measurement": "viability, T/C", "setting": "[17]", "result": 110, "unit": "%"}, {"measurement": "viability, T/C", "setting": "[18]", "result": 99.9, "unit": "%"}, {"measurement": "viability, T/C", "setting": "[19]", "result": 95.5, "unit": "%"}, {"measurement": "viability, T/C", "setting": "[20]", "result": 103, "unit": "%"}, {"measurement": "viability, T/C", "setting": "[21]", "result": 65.9, "unit": "%"}, {"measurement": "viability, T/C", "setting": "[22]", "result": 28, "unit": "%"}, {"measurement": "viability, T/C", "setting": "[23]", "result": 106, "unit": "%"}, {"measurement": "viability, T/C", "setting": "[24]", "result": 95.5, "unit": "%"}, {"measurement": "viability, T/C", "setting": "[25]", "result": 105, "unit": "%"}, {"measurement": "viability, T/C", "setting": "[26]", "result": 88.9, "unit": "%"}, {"measurement": "viability, T/C", "setting": "[27]", "result": 54, "unit": "%"}, {"measurement": "viability, T/C", "setting": "[28]", "result": 29.3, "unit": "%"}]}
{"smiles": "C#Cc1c(F)ccc2cc(O)cc(-c3ncc4c(N5CC6CCC(C5)N6)nc(OCC56CCCN5CC(F)C6)nc4c3F)c12", "note": "(stereo unspecified) + CC(Nc1ncnc2nc[nH]c12)c1cc2cccc(Cl)c2c(=O)n1-c1ccccc1", "values": [{"measurement": "IC50", "setting": "[1]", "result": "> 10", "unit": "µM"}, {"measurement": "IC50", "setting": "[2]", "result": "> 10", "unit": "µM"}, {"measurement": "IC50", "setting": "[3]", "result": "> 10", "unit": "µM"}, {"measurement": "IC50", "setting": "[4]", "result": "> 10", "unit": "µM"}, {"measurement": "IC50", "setting": "curve of first compound, second compound 3.16 µM", "result": "> 10", "unit": "µM"}, {"measurement": "IC50", "setting": "curve of first compound, second compound 10 µM", "result": "> 10", "unit": "µM"}, {"measurement": "viability, T/C", "setting": "[5]", "result": 99.5, "unit": "%"}, {"measurement": "viability, T/C", "setting": "[6]", "result": 93.7, "unit": "%"}, {"measurement": "viability, T/C", "setting": "[7]", "result": 102, "unit": "%"}, {"measurement": "viability, T/C", "setting": "[8]", "result": 109, "unit": "%"}, {"measurement": "viability, T/C", "setting": "[9]", "result": 109, "unit": "%"}, {"measurement": "viability, T/C", "setting": "[10]", "result": 73.3, "unit": "%"}, {"measurement": "viability, T/C", "setting": "[11]", "result": 102, "unit": "%"}, {"measurement": "viability, T/C", "setting": "[12]", "result": 110, "unit": "%"}, {"measurement": "viability, T/C", "setting": "[13]", "result": 98.5, "unit": "%"}, {"measurement": "viability, T/C", "setting": "[14]", "result": 99.8, "unit": "%"}, {"measurement": "viability, T/C", "setting": "[15]", "result": 102, "unit": "%"}, {"measurement": "viability, T/C", "setting": "[16]", "result": 81.3, "unit": "%"}, {"measurement": "viability, T/C", "setting": "[17]", "result": 111, "unit": "%"}, {"measurement": "viability, T/C", "setting": "[18]", "result": 97.7, "unit": "%"}, {"measurement": "viability, T/C", "setting": "[19]", "result": 98.2, "unit": "%"}, {"measurement": "viability, T/C", "setting": "[20]", "result": 99.8, "unit": "%"}, {"measurement": "viability, T/C", "setting": "[21]", "result": 104, "unit": "%"}, {"measurement": "viability, T/C", "setting": "[22]", "result": 68.2, "unit": "%"}, {"measurement": "viability, T/C", "setting": "[23]", "result": 100, "unit": "%"}, {"measurement": "viability, T/C", "setting": "[24]", "result": 110, "unit": "%"}, {"measurement": "viability, T/C", "setting": "[25]", "result": 108, "unit": "%"}, {"measurement": "viability, T/C", "setting": "[26]", "result": 104, "unit": "%"}, {"measurement": "viability, T/C", "setting": "[27]", "result": 122, "unit": "%"}, {"measurement": "viability, T/C", "setting": "[28]", "result": 74.7, "unit": "%"}, {"measurement": "viability, T/C", "setting": "second compound 3.16 µM, first compound 0.0316 µM", "result": 111, "unit": "%"}, {"measurement": "viability, T/C", "setting": "second compound 3.16 µM, first compound 0.1 µM", "result": 97.7, "unit": "%"}, {"measurement": "viability, T/C", "setting": "second compound 3.16 µM, first compound 0.316 µM", "result": 103, "unit": "%"}, {"measurement": "viability, T/C", "setting": "second compound 3.16 µM, first compound 1 µM", "result": 107, "unit": "%"}, {"measurement": "viability, T/C", "setting": "second compound 3.16 µM, first compound 3.16 µM", "result": 98.4, "unit": "%"}, {"measurement": "viability, T/C", "setting": "second compound 3.16 µM, first compound 10 µM", "result": 58.4, "unit": "%"}, {"measurement": "viability, T/C", "setting": "second compound 10 µM, first compound 0.0316 µM", "result": 104, "unit": "%"}, {"measurement": "viability, T/C", "setting": "second compound 10 µM, first compound 0.1 µM", "result": 108, "unit": "%"}, {"measurement": "viability, T/C", "setting": "second compound 10 µM, first compound 0.316 µM", "result": 109, "unit": "%"}, {"measurement": "viability, T/C", "setting": "second compound 10 µM, first compound 1 µM", "result": 105, "unit": "%"}, {"measurement": "viability, T/C", "setting": "second compound 10 µM, first compound 3.16 µM", "result": 95, "unit": "%"}, {"measurement": "viability, T/C", "setting": "second compound 10 µM, first compound 10 µM", "result": 62.5, "unit": "%"}]}
{"smiles": "CC(C)n1nc(-c2ccc3oc(N)nc3c2)c2c(N)ncnc21", "values": [{"measurement": "viability, T/C", "setting": "compound 0.000316 µM", "result": "95.1% [middle of 4 runs]"}, {"measurement": "viability, T/C", "setting": "compound 0.001 µM", "result": "95.7% [middle of 4 runs]"}, {"measurement": "viability, T/C", "setting": "compound 0.00316 µM", "result": "100% [middle of 4 runs]"}, {"measurement": "viability, T/C", "setting": "compound 0.01 µM", "result": "107% [middle of 4 runs]"}, {"measurement": "viability, T/C", "setting": "compound 0.0316 µM", "result": "121% [middle of 4 runs]"}, {"measurement": "viability, T/C", "setting": "compound 0.1 µM", "result": "94.5% [middle of 4 runs]"}, {"measurement": "IC50", "setting": "curve of compound", "result": "> 0.1", "unit": "µM"}]}
